What all share (assay): AK assay 384-well format, Prestwick library screening
One experiment deals with E. faecium. Format: cell-based, Enterococcus faecium. The following applies: 50 μM final drug concentration; for fold induction at 50 µM: Enterococcus faecium, 3 h.
Experiment [1] deals with S. aureus strain USA300-0114. The format is cell-based, Staphylococcus aureus. The following applies: 50 μM final drug concentration; for fold induction at 50 µM: Staphylococcus aureus, USA300, 3 h.
The test system of another experiment is K. pneumoniae. Format: cell-based, Klebsiella pneumoniae. The following applies: 50 μM final drug concentration; for fold induction at 50 µM: Klebsiella pneumoniae, 3 h.
The subject of experiment [2] is A. baumannii strain 98-37-09. Format: cell-based, Acinetobacter baumannii. The following applies: 50 μM final drug concentration; for fold induction at 50 µM: Acinetobacter baumannii, 983709, 3 h.
The test system of another experiment is P. aeruginosa. Format: cell-based, Pseudomonas aeruginosa. The following applies: 50 μM final drug concentration; for fold induction at 50 µM: Pseudomonas aeruginosa, 3 h.
The test system of a further experiment is E. cloacae. Format: cell-based, Enterobacter cloacae. The following applies: 50 μM final drug concentration; for fold induction at 50 µM: Enterobacter cloacae, 3 h.
The subject of a further experiment is E. coli. Format: cell-based, Escherichia coli. The following applies: 50 μM final drug concentration; for fold induction at 50 µM: Escherichia coli, 3 h.
Setting [3] is: planktonic E. faecium, 384-well, cutoff for positive-scoring molecules 3-fold increase, read-out: AK-based Prestwick Library Screening Results: E. faecium (increase in extracellular AK activity).
Setting [4] is: planktonic S. aureus, 384-well, cutoff for positive-scoring molecules 3-fold increase, read-out: AK-based Prestwick Library Screening Results: S. aureus (increase in extracellular AK activity).
[5] abbreviates: planktonic K. pneumoniae, 384-well, cutoff for positive-scoring molecules 3-fold increase, read-out: AK-based Prestwick Library Screening Results: K. pneumoniae (increase in extracellular AK activity).
The mark [6] stands for this setting: planktonic A. baumannii, 384-well, cutoff for positive-scoring molecules 3-fold increase, read-out: AK-based Prestwick Library Screening Results: A. baumannii (increase in extracellular AK activity).
Where [7] appears, read: planktonic P. aeruginosa, 384-well, cutoff for positive-scoring molecules 3-fold increase, read-out: AK-based Prestwick Library Screening Results: P. aeruginosa (increase in extracellular AK activity).
The mark [8] stands for this setting: planktonic E. cloacae, 384-well, cutoff for positive-scoring molecules 3-fold increase, read-out: AK-based Prestwick Library Screening Results: E. cloacae (increase in extracellular AK activity).
Where [9] appears, read: planktonic E. coli, 384-well, cutoff for positive-scoring molecules 3-fold increase, read-out: AK-based Prestwick Library Screening Results: E. coli (increase in extracellular AK activity).
[10] abbreviates: planktonic E. faecium, 384-well, […], read-out: AK-based Prestwick Library Screening Results: E. faecium (increase in extracellular AK activity).
Where [11] appears, read: planktonic S. aureus, 384-well, […], read-out: AK-based Prestwick Library Screening Results: S. aureus (increase in extracellular AK activity).
Where [12] appears, read: planktonic K. pneumoniae, 384-well, […], read-out: AK-based Prestwick Library Screening Results: K. pneumoniae (increase in extracellular AK activity).
[13] abbreviates: planktonic A. baumannii, 384-well, […], read-out: AK-based Prestwick Library Screening Results: A. baumannii (increase in extracellular AK activity).
The mark [14] stands for this setting: planktonic P. aeruginosa, 384-well, […], read-out: AK-based Prestwick Library Screening Results: P. aeruginosa (increase in extracellular AK activity).
The mark [15] stands for this setting: planktonic E. cloacae, 384-well, […], read-out: AK-based Prestwick Library Screening Results: E. cloacae (increase in extracellular AK activity).
Where [16] appears, read: planktonic E. coli, 384-well, […], read-out: AK-based Prestwick Library Screening Results: E. coli (increase in extracellular AK activity).
The mark [17] stands for this setting: cutoff for positive-scoring molecules 3-fold increase, read-out: AK-based Prestwick Library Screening Results, E. faecium (fold increase in extracellular AK activity).
The mark [18] stands for this setting: cutoff for positive-scoring molecules 3-fold increase, read-out: AK-based Prestwick Library Screening Results, S. aureus (fold increase in extracellular AK activity).
The mark [19] stands for this setting: cutoff for positive-scoring molecules 3-fold increase, read-out: AK-based Prestwick Library Screening Results, K. pneumoniae (fold increase in extracellular AK activity).
Setting [20] is: cutoff for positive-scoring molecules 3-fold increase, read-out: AK-based Prestwick Library Screening Results, A. baumannii (fold increase in extracellular AK activity).
Setting [21] is: cutoff for positive-scoring molecules 3-fold increase, read-out: AK-based Prestwick Library Screening Results, P. aeruginosa (fold increase in extracellular AK activity).
Setting [22] is: cutoff for positive-scoring molecules 3-fold increase, read-out: AK-based Prestwick Library Screening Results, E. cloacae (fold increase in extracellular AK activity).
[23] abbreviates: cutoff for positive-scoring molecules 3-fold increase, read-out: AK-based Prestwick Library Screening Results, E. coli (fold increase in extracellular AK activity).

Structures can show the parent of a compound that is named as a salt. Where two headings read alike, the source gives them in different places.

Data on nine compounds can be found in US10004701B2, “Methods and compositions for treating infection” (UNIVERSITY OF ROCHESTER, priority 2012, dated 2018).

Consider `CC(=O)OCC(=O)[C@@]1(O)CC[C@H]2[C@@H]3CCC4=CC(=O)CC[C@]4(C)[C@@]3(F)[C@@H](O)C[C@@]21C` [Fludrocortisone acetate], for which the fold induction at 50 µM in the experiment with E. faecium (setting [3]) came to 1.1; in experiment [1] (setting [4]), 1; with K. pneumoniae (setting [5]) it was 1; in experiment [2] (setting [6]), 1.2; in the experiment on P. aeruginosa (setting [7]) it was 1.2; in the experiment with E. cloacae (setting [8]), 1.4. Besides, the fold induction at 50 µM in the experiment on E. coli (setting [9]) came to 1.3.

As to `O=C(O)c1ccccc1Nc1cccc(C(F)(F)F)c1` [Flufenamic acid], the fold induction at 50 µM was 1 with E. faecium (setting [10]); 0.5 in experiment [1] (setting [11]); 1 in the experiment on K. pneumoniae (setting [12]); 1.3 in experiment [2] (setting [13]); 1.1 in the experiment with P. aeruginosa (setting [14]); 1.8 in the experiment on E. cloacae (setting [15]). In the experiment with E. coli (setting [16]), the fold induction at 50 µM is 1.

For the compound `CC1CCc2cc(F)cc3c(=O)c(C(=O)O)cn1c23` (stereo not drawn) [Flumequine], the fold induction at 50 µM is 1.5 in the experiment with E. faecium (setting [10]); 2.2 in experiment [1] (setting [11]); 2.2 in the experiment on K. pneumoniae (setting [12]); 2.9 in experiment [2] (setting [13]); 1.4 in the experiment on P. aeruginosa (setting [14]); 24.4 with E. cloacae (setting [15]). Further, the fold induction at 50 µM with E. coli (setting [16]) was 13.6.

For `Fc1ccc(C(c2ccc(F)cc2)N2CCN(C/C=C/c3ccccc3)CC2)cc1` [Flunarizine dihydrochloride], the fold induction at 50 µM in the experiment with E. faecium (setting [3]) came to 1.3; in experiment [1] (setting [4]), 1.1; in the experiment on K. pneumoniae (setting [5]) it was 1.4; in experiment [2] (setting [6]), 2.6; in the experiment with P. aeruginosa (setting [7]), 1.3; with E. cloacae (setting [8]), 1.6. Also, the fold induction at 50 µM with E. coli (setting [9]) came to 1.7.

`CC1(C)O[C@@H]2C[C@H]3[C@@H]4C[C@H](F)C5=CC(=O)C=C[C@]5(C)[C@H]4[C@@H](O)C[C@]3(C)[C@]2(C(=O)CO)O1` [Flunisolide]: the fold induction at 50 µM in the experiment on E. faecium (planktonic, cutoff for positive 3-fold increase, read-out: AK-based Prestwick Library Screening Results, E. faecium (fold increase in extracellular AK activity)) is 0.9; in experiment [1] (planktonic, cutoff for positive 3-fold increase, read-out: AK-based Prestwick Library Screening Results, S. aureus (fold increase in extracellular AK activity)), 0.4; in the experiment on K. pneumoniae (planktonic, cutoff for positive 3-fold increase, read-out: AK-based Prestwick Library Screening Results, K. pneumoniae (fold increase in extracellular AK activity)) it was 0.5; in experiment [2] (planktonic, cutoff for positive 3-fold increase, read-out: AK-based Prestwick Library Screening Results, A. baumannii (fold increase in extracellular AK activity)), 0.4; with P. aeruginosa (planktonic, cutoff for positive 3-fold increase, read-out: AK-based Prestwick Library Screening Results, P. aeruginosa (fold increase in extracellular AK activity)) it was 0.3; in the experiment with E. cloacae (planktonic, cutoff for positive 3-fold increase, read-out: AK-based Prestwick Library Screening Results, E. cloacae (fold increase in extracellular AK activity)), 0.3. In the experiment with E. coli (planktonic, cutoff for positive 3-fold increase, read-out: AK-based Prestwick Library Screening Results, E. coli (fold increase in extracellular AK activity)), the fold induction at 50 µM worked out at 0.5.

`Cc1c(Nc2ncccc2C(=O)O)cccc1C(F)(F)F` [Flunixin meglumine]: the fold induction at 50 µM was determined as 0.6 in the experiment with E. faecium (planktonic, […], read-out: AK-based Prestwick Library Screening Results, E. faecium (fold increase in extracellular AK activity)); 0.5 in experiment [1] (planktonic, […], read-out: AK-based Prestwick Library Screening Results, S. aureus (fold increase in extracellular AK activity)); 0.5 with K. pneumoniae (planktonic, […], read-out: AK-based Prestwick Library Screening Results, K. pneumoniae (fold increase in extracellular AK activity)); 0.5 in experiment [2] (planktonic, […], read-out: AK-based Prestwick Library Screening Results, A. baumannii (fold increase in extracellular AK activity)); 0.6 with P. aeruginosa (planktonic, […], read-out: AK-based Prestwick Library Screening Results, P. aeruginosa (fold increase in extracellular AK activity)); 1 in the experiment on E. cloacae (planktonic, […], read-out: AK-based Prestwick Library Screening Results, E. cloacae (fold increase in extracellular AK activity)). Besides, in the experiment on E. coli (planktonic, […], read-out: AK-based Prestwick Library Screening Results, E. coli (fold increase in extracellular AK activity)), the fold induction at 50 µM turned out to be 0.6.

For `CC(=O)OCC(=O)[C@@]12OC(C)(C)O[C@@H]1C[C@H]1[C@@H]3C[C@H](F)C4=CC(=O)C=C[C@]4(C)[C@@]3(F)[C@@H](O)C[C@@]12C` [Fluocinonide], the fold induction at 50 µM with E. faecium (setting [17]) came to 1; in experiment [1] (setting [18]), 1.1; with K. pneumoniae (setting [19]), 0.9; in experiment [2] (setting [20]), 0.9; in the experiment with P. aeruginosa (setting [21]) it was 1.2; in the experiment on E. cloacae (setting [22]), 1.7. Further, in the experiment on E. coli (setting [23]), the fold induction at 50 µM is 1.

On to `C/C=C1/C[N@+]2(C)CC[C@]34C(=C(C=O)[C@H]1C[C@@H]32)Nc1ccccc14.[Cl-]` [Fluorocurarine chloride], for which the “AK-based Prestwick Library Screening Results, E. faecium (fold increase in extracellular AK activity)” value with E. faecium (planktonic, […]) stood at 0.9. For the same compound, the “AK-based Prestwick Library Screening Results, S. aureus (fold increase in extracellular AK activity)” value in experiment [1] (planktonic, […]) is listed as 0.8. Moreover, in the experiment with K. pneumoniae (planktonic, […]), the “AK-based Prestwick Library Screening Results, K. pneumoniae (fold increase in extracellular AK activity)” value is given as 0.7. Moreover, the “AK-based Prestwick Library Screening Results, A. baumannii (fold increase in extracellular AK activity)” value in experiment [2] (planktonic, […]) is 0.9. Also, in the experiment with P. aeruginosa (planktonic, […]), the “AK-based Prestwick Library Screening Results, P. aeruginosa (fold increase in extracellular AK activity)” value was 0.8. Moreover, in the experiment on E. cloacae (planktonic, […]), the “AK-based Prestwick Library Screening Results, E. cloacae (fold increase in extracellular AK activity)” value is 1.4. Moreover, in the experiment with E. coli (planktonic, […]), the “AK-based Prestwick Library Screening Results, E. coli (fold increase in extracellular AK activity)” value is reported as 0.9.

On to `CC(=O)[C@@]1(O)CC[C@H]2[C@@H]3C[C@H](C)C4=CC(=O)C=C[C@]4(C)[C@@]3(F)[C@@H](O)C[C@@]21C` [Fluorometholone], for which the fold induction at 50 µM with E. faecium (setting [17]) worked out at 1; in experiment [1] (setting [18]), 1.2; in the experiment on K. pneumoniae (setting [19]), 1; in experiment [2] (setting [20]) it was 1.3; with P. aeruginosa (setting [21]), 1.1; in the experiment with E. cloacae (setting [22]), 1.7. The fold induction at 50 µM in the experiment with E. coli (setting [23]) is 1.1.
